Earlier results as cited in patent US8338383B1, “Use of immunomodulators for the treatment of cancer” (priority 2012, dated 2012).

Test system: patients with advanced pancreatic cancer
Settings: survival from study enrollment to death from any cause

SMILES	increased median survival versus 5-FU [months]	median Overall Survival [months]
Nc1ccn([C@@H]2O[C@H](CO)[C@@H](O)C2(F)F)c(=O)n1 [gemcitabine, Gemcitabine]	1.5	5.7
O=c1[nH]cc(F)c(=O)[nH]1 [5-FU, 5-fluorouracil]		4.2
